{"source": "patent US20210386705A1", "about": "“APPLICATION OF CHIGLITAZAR AND RELATED COMPOUNDS THEREOF” (SHENZHEN CHIPSCREEN BIOSCIENCES CO., LTD., priority 2018, published 2021)", "key": {"[1]": {"tested_on": "connective tissue growth factor (CTGF)", "assay": "TGF-β1-activated hepatic stellate cells, CTGF gene expression (qPCR)", "type": "cell-based, human", "settings": "TGF-β1 stimulation, 24 hours; FIG. 4", "method": "Human primary hepatic stellate cells were seeded into 6-well plates with complete growth media (Stellate Cell Medium) for 24 hours, and then the culture media were replaced by fresh media (free of serum and growth factors) containing TGF-β1 and the compound to be tested (sodium chiglitazar) or the reference compound PPARγ/α dual agonist pioglitazone or PPARα/δ dual agonist GFT505 (both purchased from Selleck), and the cells were cultured for 24 hours. The total RNAs of the samples were extracted, and reverse transcription reaction was performed. Thereafter, a conventional PCR amplification kit (FastStart Universal SYBR@ Green Master (ROX), Roche) was used for further detection, where the PCR primers were designed with reference to the NCBI standard mRNA sequence of the target genes (Table 2). PCR reaction and detection were carried out on the ABI StepOnePlus real-time quantitative PCR instrument.\nBy calculating the relative amount of transcripts was calculate by “Delta-Delta CT method” (Livak et al. Methods 2001), and using ACTB as the housekeeping gene for normalization and the average data of untreated human hepatic stellate cells as a reference control, the relative change folds of gene expression were obtained (FIG. 4)."}, "PPARα": {"molecular_target": "T1, PPARα (Homo sapiens, UniProt Q07869)", "T1 construct": "expressed in transfected cells; host or cells: human hepatocyte cell line L-02", "T1 sequence (Q07869 1-468)": "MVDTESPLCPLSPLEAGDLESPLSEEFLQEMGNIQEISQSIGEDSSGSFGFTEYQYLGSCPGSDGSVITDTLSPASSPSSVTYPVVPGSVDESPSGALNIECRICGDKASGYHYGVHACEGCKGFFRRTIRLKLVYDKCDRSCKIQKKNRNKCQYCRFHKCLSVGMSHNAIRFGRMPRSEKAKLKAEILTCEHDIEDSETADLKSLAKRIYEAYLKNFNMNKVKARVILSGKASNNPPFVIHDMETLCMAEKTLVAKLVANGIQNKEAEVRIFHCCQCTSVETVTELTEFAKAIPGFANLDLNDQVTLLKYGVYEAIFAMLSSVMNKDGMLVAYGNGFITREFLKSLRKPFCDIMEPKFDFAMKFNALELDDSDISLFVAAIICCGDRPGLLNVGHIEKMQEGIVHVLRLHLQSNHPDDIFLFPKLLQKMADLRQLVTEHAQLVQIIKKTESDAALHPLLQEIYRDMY", "assay": "PPAR reporter gene model in L-02 cells, PPARα", "type": "cell-based", "settings": "luciferase reporter, 24 hours drug, read-out: Half-maximal activation concentration of reporter gene AC50, PPARα", "method": "The PPAR reporter gene model comprises three subtypes of expression plasmids, RXR expression plasmid, plasmid with luciferase reporter gene, and GFP expression plasmid as an external reference. The human hepatocyte cell line L-02 cells were seeded into 96-well plates at the density of 15,000 cells/well with about 50% plating rate, followed by culturing for 24 hours at 37° C. […] The fluorescence intensity (at wavelength 485-527 nm) of green fluorescent protein (GFP) in each well was firstly detected as an internal standard by a fluorescence detector, and then 30 μL of luciferase substrates (Promega, E151A) were added to each well. After slightly shaking to mix well, the […] were detected. The relative reporter gene activation intensity was obtained by the ratio of the fluorescence detection signal of the drugs to be tested to that of the solvent control, with both the signals normalized to the internal standard GFP signal. The half-maximal activation (AC50) of the drugs to be tested was calculated with the activity at various concentrations (shown in Table 1)."}, "THP-1 cells": {"tested_on": "THP-1 cells", "assay": "Inflammatory factor gene expression (MCP-1, TNFα) in PMA-activated THP-1 cells (qPCR)", "type": "cell-based, human", "settings": "6 hours, FIG. 5", "method": "Human acute monocytic leukemia mononuclear cell line (THP-1) cells were activated by a certain concentration of phorbol esters (Phorbol-12-myristate-13-acetate, PMA) and differentiated into macrophages. Through this cell model, the activating effects of sodium chiglitazar and other compounds on the expression of THP-1 related inflammatory factors were detected.\nTHP-1 cells were seeded into 6-well plates with complete growth media for 24 hours, and then the culture media were replaced by fresh media containing PMA and the compound to be tested (sodium chiglitazar) or the reference compound GFT505 (PPARα/δ dual agonist), and the cells were cultured for 6 hours. The total RNAs of the samples were extracted, and cDNA templates were synthesized by reverse transcription reaction (Transcriptor First Strand cDNA Synthesis Kit, Roche). Thereafter, a conventional PCR amplification kit (FastStart Universal SYBR@ Green Master (ROX), Roche) was used for semi-quantitative gene expression detection on the ABI StepOnePlus real-time quantitative PCR instrument.\nThe relative expression change of the target genes was obtained by using the internal reference β-actin gene (ACTB) as the standard for normalization, compared with the untreated cell samples, and the relative expression change folds were calculated (FIG. 5)."}}}
{"smiles": "O=C(c1ccc(F)cc1)c1ccccc1N[C@@H](Cc1ccc(OCCn2c3ccccc3c3ccccc32)cc1)C(=O)[O-].[Na+]", "note": "[sodium chiglitazar]", "values": [{"measurement": "Effect on expression of connective tissue growth factor", "setting": "[1]", "result": "significant and dose-dependent inhibitory effect"}, {"measurement": "AC50", "setting": "PPARα", "result": 1100, "unit": "nM"}, {"measurement": "Inhibition of phorbol esters-mediated activation of monocyte and related gene expression", "setting": "THP-1 cells", "result": "significantly inhibit"}]}
